Measured values: the CheMixHub viscosity set
± gives the uncertainty stated by the source.

Assay: xn = mol fraction of the nth substance listed

CN(C)c1ccccc1 + O=C1CCCCC1
viscosity [mPa·s], 101 kPa
Settings	303.15 K	308.15 K
x1 = 0.0699	1.724 ± 0.061	1.569 ± 0.056
x1 = 0.1269	1.658 ± 0.059	1.502 ± 0.054
x1 = 0.1906	1.587 ± 0.056	1.432 ± 0.051
x1 = 0.2652	1.512 ± 0.054	1.353 ± 0.049
x1 = 0.3251	1.457 ± 0.052	1.299 ± 0.047
x1 = 0.4012	1.395 ± 0.05	1.245 ± 0.045
x1 = 0.4852	1.336 ± 0.048	1.195 ± 0.043
x1 = 0.5602	1.292 ± 0.047	1.161 ± 0.042
x1 = 0.6421	1.254 ± 0.045	1.136 ± 0.041
x1 = 0.7014	1.231 ± 0.045	1.124 ± 0.041
x1 = 0.7745	1.209 ± 0.044	1.114 ± 0.041
x1 = 0.8512	1.192 ± 0.043	1.113 ± 0.041
x1 = 0.9212	1.18 ± 0.043	1.112 ± 0.041

OCCN1CCOCC1 + O
101 kPa
Settings	viscosity [mPa·s]
303.15 K, x1 = 0.8238	30.25 ± 2
313.15 K, x1 = 0.1126	13.55 ± 0.96

C=CC#N + Cc1cc(C)cc(C)c1
307.4 K, 101.33 kPa
Settings	viscosity [mPa·s]
x2 = 0.121	0.551 ± 0.005
x2 = 0.3367	0.495 ± 0.004
x2 = 0.5736	0.424 ± 0.004
x2 = 0.649	0.406 ± 0.004
x2 = 0.7535	0.373 ± 0.003
x2 = 0.9118	0.332 ± 0.003

CCCCC(C)O (centres undefined) + CC(C)OC(C)C
viscosity [mPa·s], 100 kPa
Settings	x2 = 0.0806	x2 = 0.1592	x2 = 0.2412	x2 = 0.3508	x2 = 0.4391	x2 = 0.5594	x2 = 0.6497	x2 = 0.7378	x2 = 0.8483	x2 = 0.9386
293.15 K	4.51 ± 0.23	3.97 ± 0.2	3.48 ± 0.18	2.91 ± 0.15	2.49 ± 0.13	1.97 ± 0.1	1.6 ± 0.08	1.26 ± 0.06	0.84 ± 0.04	0.531 ± 0.027
298.15 K	3.61 ± 0.18	3.16 ± 0.16	2.76 ± 0.14	2.3 ± 0.12	1.97 ± 0.1	1.56 ± 0.08	1.275 ± 0.065	1.02 ± 0.05	0.706 ± 0.036	0.465 ± 0.024
303.15 K	2.89 ± 0.15	2.53 ± 0.13	2.2 ± 0.11	1.83 ± 0.09	1.567 ± 0.079	1.25 ± 0.06	1.034 ± 0.052	0.84 ± 0.04	0.6 ± 0.03	0.42 ± 0.02
308.15 K	2.38 ± 0.12	2.08 ± 0.11	1.825 ± 0.092	1.53 ± 0.08	1.32 ± 0.07	1.06 ± 0.05	0.88 ± 0.04	0.715 ± 0.036	0.52 ± 0.03	0.38 ± 0.02
313.15 K	2 ± 0.1	1.75 ± 0.09	1.54 ± 0.08	1.29 ± 0.07	1.115 ± 0.056	0.906 ± 0.046	0.756 ± 0.038	0.62 ± 0.03	0.46 ± 0.02	0.35 ± 0.02
318.15 K	1.69 ± 0.09	1.49 ± 0.08	1.31 ± 0.07	1.11 ± 0.06	0.962 ± 0.049	0.783 ± 0.04	0.66 ± 0.03	0.55 ± 0.03	0.416 ± 0.021	0.32 ± 0.02
323.15 K	1.44 ± 0.07	1.27 ± 0.06	1.12 ± 0.06	0.95 ± 0.05	0.83 ± 0.04	0.68 ± 0.04	0.58 ± 0.03	0.49 ± 0.03	0.38 ± 0.02	0.295 ± 0.015

C=CC#N + CN(C)C=O
303.15 K, 101.3 kPa
Settings	viscosity [mPa·s]
x1 = 0.099	0.7313 ± 0.0095
x1 = 0.2027	0.6911 ± 0.009
x1 = 0.2977	0.6444 ± 0.0085
x1 = 0.4005	0.5998 ± 0.0081
x1 = 0.497	0.5516 ± 0.0075
x1 = 0.5957	0.5028 ± 0.007
x1 = 0.6984	0.4518 ± 0.0065
x1 = 0.798	0.4041 ± 0.0059
x1 = 0.895	0.3581 ± 0.0054

CCCC[P+](CC)(CC)CC.N#Cc1ccc[n-]1 + OCCN(CCO)CCO
293.15 K, 100 kPa
Settings	viscosity [mPa·s]
x1 = 0.018	956 ± 140
x1 = 0.089	975 ± 150
x1 = 0.104	937 ± 140
x1 = 0.223	809 ± 120
x1 = 0.413	679 ± 100

CCCCN(CCCC)CCCC + CCCCCC
viscosity [mPa·s], 101 kPa
Settings	x1 = 0.0982	x1 = 0.1945	x1 = 0.3994	x1 = 0.495	x1 = 0.5384	x1 = 0.7924	x1 = 0.903
303.15 K	0.3305 ± 0.0049	0.3909 ± 0.0052	0.5434 ± 0.0059	0.623 ± 0.0063	0.6623 ± 0.0066	0.923 ± 0.0081	1.05 ± 0.0089
313.15 K	0.289 ± 0.0048	0.3449 ± 0.005	0.4813 ± 0.0056	0.5536 ± 0.006	0.588 ± 0.0062	0.8088 ± 0.0074	0.91 ± 0.008

C=CC#N + CCC(C)O
viscosity [mPa·s], 101.33 kPa
Settings	x1 = 0.1033	x1 = 0.2014	x1 = 0.301	x1 = 0.4055	x1 = 0.5087	x1 = 0.6049	x1 = 0.7009	x1 = 0.803	x1 = 0.8992
298.15 K	1.828 ± 0.022	1.319 ± 0.017	0.99 ± 0.013	0.775 ± 0.01	0.63 ± 0.009	0.536 ± 0.008	0.456 ± 0.007	0.418 ± 0.006	0.378 ± 0.006
303.15 K	1.567 ± 0.019	1.165 ± 0.015	0.887 ± 0.012	0.704 ± 0.01	0.582 ± 0.008	0.499 ± 0.007	0.438 ± 0.007	0.391 ± 0.006	0.358 ± 0.006
308.15 K	1.361 ± 0.017	1.024 ± 0.013	0.799 ± 0.011	0.644 ± 0.009	0.539 ± 0.008	0.465 ± 0.007	0.413 ± 0.006	0.373 ± 0.006	0.342 ± 0.005

C=CC#N + CC#N
303.15 K, 101.3 kPa
Settings	viscosity [mPa·s]
x1 = 0.0965	0.3219 ± 0.0031
x1 = 0.2002	0.3193 ± 0.0031
x1 = 0.2977	0.3185 ± 0.0031
x1 = 0.3966	0.3178 ± 0.0031
x1 = 0.4928	0.3169 ± 0.003
x1 = 0.5983	0.3154 ± 0.003
x1 = 0.6941	0.3147 ± 0.003
x1 = 0.7977	0.3136 ± 0.003
x1 = 0.8997	0.3124 ± 0.003

CCC(C)(C)O + CCC(C)=O
Settings	viscosity [mPa·s]
293.15 K, 101 kPa, x2 = 0.2341	2.105 ± 0.39
